Measurements: patent US8143025B2, “Antibodies against vascular endothelial growth factor receptor-1” (ImClone LLC, priority 2004, dated 2012)

Assays:
[1] = biological target: T1, DU4475 human breast carcinoma cells (Homo sapiens, UniProt P17948); experiment: Flow cytometry analysis, DU4475 cells; assay type: binding; details: FIG. 8B
T1 construct: host or cells: DU4475 human breast carcinoma cells
Procedure: Aliquots of 10^6PAE-VEGFR-I cells were harvested from subconfluent cultures and incubated with anti-VEGFR-I antibody clones 6F9, 13G12, F11, and 18F1 in PBS with 1% bovine serum albumin (BSA) and 0.02% sodium azide (staining buffer) for one hour on ice. Aliquots of 10^6DU4475 human breast carcinoma cells were harvested from subconfluent cultures and incubated with anti-VEGFR-1 antibody clone 18F1 in PBS with 1% bovine serum albumin (BSA) and 0.02% sodium azide (staining buffer) for one hour on ice. A matched IgG isotype (Jackson ImmunoResearch, West Grove, Pa.) was used as a negative control. Cells were washed twice with flow buffer and then incubated with a fluorescein isothiocyanate (FITC)-labeled goat anti-human IgG antibody (BioSource International, Camarillo, Calif.) in staining buffer for 30 minutes on ice. Cells were washed as above and analyzed on an Epics XL flow cytometer (Beckman-Coulter, Hialeah, Fla.). Dead cells and debris were eliminated from the analysis on the basis of forward and sideways light scatter. The mean fluorescent intensity units (MFRJ) were calculated as the mean log fluorescence multiplied by the percentage of positive population.

DU4475 xenograft = experiment: DU4475 breast tumor xenograft; assay type: in vivo, mouse
Procedure: Athymic nude mice (Charles River Laboratories, Wilmington, Mass.) were injected subcutaneously in the left flank area with 2×10^6 of DU4475 cells or 5×10^6 of MDA-MB-231 and MDA-MB-435 cells mixed in Matrigel (Collaborative Research Biochemicals. Bedford, Mass.). In the DU4475 and MDA-MB-231 models, tumors were allowed to reach approximately 200 mm^3 in size and then mice were randomized into groups of 12-16 animals per group. Animals received i.p. administration of the anti-VEGFR-I antibody clones 6F9, 15F11, or 18F1 at a dose of 0.5 mg (MDA-MB-231) or 1 mg (DU4475) three times each week. In the MDA-MB-435 model, the tumor cells were implanted subcutaneously into mammary fat pad area in the mouse. After tumors grew to reach approximately 200 mm^3 in size, mice were randomized into groups of 15 animals per group and intraperitoneally administered with 0.5 mg per dose of 18F1 antibody three times each week. Mice in control groups received an equal volume of saline solution. Treatment of animals was continued for the duration of the experiment. Tumors were measured twice each week with calipers. Tumor volumes were calculated using the formula [π/6 (w1×w2×w2)], where “w1” represents the largest tumor diameter and “w2” represents the smallest tumor diameter. Female athymic nu/nu mice, 6-8 weeks of age, were injected subcutaneously on the lateral dorsal surface with 0.4 mL volume of a suspension containing a human tumor cell line in media, diluted 1:1 with MATRIGEL™ (BD Biosciences). The cell lines used in xenograft models, with the cell doses indicated in parenthesis (10^6 cells/mouse), were: human colon carcinoma cell lines DLD-I (5), GEO (5) and HT-29 (5); human breast carcinoma cell lines DU4475 (2), MDA-MB-231 (5), MDA-MB-435 (5), and BT474 (5). When tumors reached approximately 200-300 mm^3, mice were randomized by tumor size and divided into treatment groups. Tumor growth was evaluated approximately twice weekly, with tumor volume calculated as π/6* (Length*Width^2), where Length=longest diameter and Width=diameter perpendicular to Length. Tumor dimensions were measured with calipers. T/C % was calculated as 100*(Final Treatment Tumor Volume/Initial Treatment Tumor Volume)/(Final Control Tumor Volume/Initial Control Tumor Volume). 18F1 was diluted in 0.9% USP saline (Braun) or phosphate buffered saline (PBS) and administered intraperitoneally in a volume of 0.5 mL per mouse. The effect of treatment on tumor growth was analyzed using repeated measures analysis of variance (RM ANOVA), p<0.05 was considered significant. 18F1 was used in combination with an antibody to mouse VEGFR-I, MF1. […] AU treatments were administered i.p. The effect of treatments on tumor growth were analyzed using repeated measures analysis of variance (RM ANOVA), p<0.05 was considered significant.

T1 sequence (P17948 27-1338): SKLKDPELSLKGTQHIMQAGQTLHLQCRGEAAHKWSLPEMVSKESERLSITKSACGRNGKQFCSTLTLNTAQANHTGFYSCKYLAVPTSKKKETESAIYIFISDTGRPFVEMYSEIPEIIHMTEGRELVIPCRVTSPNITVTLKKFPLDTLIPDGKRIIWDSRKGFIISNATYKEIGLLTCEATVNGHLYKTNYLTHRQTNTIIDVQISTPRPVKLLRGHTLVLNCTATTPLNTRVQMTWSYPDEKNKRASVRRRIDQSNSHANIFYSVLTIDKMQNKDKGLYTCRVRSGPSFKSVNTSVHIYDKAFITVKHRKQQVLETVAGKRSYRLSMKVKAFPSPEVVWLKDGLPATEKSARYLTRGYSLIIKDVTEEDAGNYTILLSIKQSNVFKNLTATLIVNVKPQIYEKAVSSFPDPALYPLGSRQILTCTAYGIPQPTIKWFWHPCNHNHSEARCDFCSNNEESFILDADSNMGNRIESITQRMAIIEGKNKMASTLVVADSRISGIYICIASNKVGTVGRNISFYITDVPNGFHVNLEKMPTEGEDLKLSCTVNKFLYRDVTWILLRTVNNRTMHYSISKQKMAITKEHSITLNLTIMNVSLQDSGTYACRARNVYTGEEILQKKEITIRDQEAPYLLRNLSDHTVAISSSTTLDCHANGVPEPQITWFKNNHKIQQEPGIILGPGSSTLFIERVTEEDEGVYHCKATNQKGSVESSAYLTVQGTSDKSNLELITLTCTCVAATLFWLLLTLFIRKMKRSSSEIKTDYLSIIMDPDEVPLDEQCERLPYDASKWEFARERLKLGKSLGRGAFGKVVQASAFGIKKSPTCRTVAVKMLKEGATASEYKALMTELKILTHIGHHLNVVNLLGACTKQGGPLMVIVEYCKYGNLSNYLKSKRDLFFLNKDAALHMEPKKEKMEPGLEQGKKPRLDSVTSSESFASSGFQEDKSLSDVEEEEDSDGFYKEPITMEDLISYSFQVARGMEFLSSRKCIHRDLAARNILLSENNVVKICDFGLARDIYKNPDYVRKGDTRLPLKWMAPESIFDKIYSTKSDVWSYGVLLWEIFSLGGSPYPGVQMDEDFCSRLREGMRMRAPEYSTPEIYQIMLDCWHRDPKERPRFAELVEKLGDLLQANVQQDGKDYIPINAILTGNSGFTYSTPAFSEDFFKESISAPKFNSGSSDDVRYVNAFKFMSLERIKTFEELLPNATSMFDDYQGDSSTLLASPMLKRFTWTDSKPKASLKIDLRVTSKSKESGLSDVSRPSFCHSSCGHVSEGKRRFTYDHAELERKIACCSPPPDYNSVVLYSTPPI

18F1: human anti-VEGFR-1 monoclonal antibody clone; VL SEQ ID NO: 16, VH SEQ ID NO: 20 [Clone 18F1]
binding reactivity with DU4475 human breast carcinoma [1]: binding reactivity
tumor growth of the DU4475 xenograft (DU4475 xenograft; 1 mg per dose three times each week i.p., p<0.05, FIGS. 19A-B): statistically significant suppression
tumor growth of the DU4475 xenograft (DU4475 xenograft; 0.5 or 1 mg per dose three times each week, ANOVA p<0.05, FIG. 20A): statistically significant suppression
growth of DU4475 xenograft tumors (DU4475 xenograft; Example 9, intraperitoneal, p<0.05, FIG. 25A): significantly (p<0.05) suppressed
tumor growth inhibition, DU4475 xenograft (DU4475 xenograft; Example 11, p<0.05, FIG. 28B): significant tumor growth inhibition
